From US20150344822A1, “Decontaminant and Process for Decontamination of Chemicals from Infrastructural Materials” (priority 2014, published 2015)
“And” between values parts separate entries of the source, which are not always exact repeats. Equal entries are not always repeated. Where two headings read alike, the source gives them in different places.

How the values were obtained:
[1] = hazardous ingredient of the product; cited from earlier work
[2] = cited from earlier work
[3] = test system: rat; settings: oral (rat); cited from earlier work
[4] = Task 2: efficacy of decontamination agents (extraction and subsequent rinses); settings: for Aqueous concentration of mercury, Extraction: extractant hypochlorite (300 mg/L), mercury input 19530.00 mg/L, adhered 7 days, 20-25° C.
From the text: The pipe materials used for subtask 2 were DIE, DIW, PVC and copper. […] Types of interactions included scrubbing, flushing, recirculation, shaking and static equilibrium.
After equilibration, the contaminant was extracted using the various decontamination agents. […] Surfactant molecules have both hydrophilic and hydrophobic parts, and the most attractive place for them in water is at the surface where the forces of both attraction and repulsion to water can be satisfied. […] The aqueous solutions of these decontaminants were prepared using the available chemical decontaminants and diluting them to required concentration by adding DI water. Appropriate volume corrections were conducted for NaOCl considering available solution concentration of NaOCl received from the supplier.
(§1) The sample was introduced via a peristaltic pump by pneumatic nebulization into radio frequency plasma where energy transfer processes cause desolvation, atomization, and ionization. The ions were extracted from the plasma through a pumped vacuum interface and separated on the basis of their mass-to-charge ratio by a quadrupole mass spectrometer. The ions transmitted through the quadrupole were registered by a continuous dynode electron multiplier and the ion information was processed by a data handling system.

[5] = product as supplied; cited from earlier work
[6] = Task 1A: surface adherence of contaminants on pipe materials, 7 days at 20-25° C.; type: physicochemical; settings: comparison of Tasks 1A, 1B, 1C
[7] = Task 1: removal of adhered chemicals by three de-ionized water rinses and extractant; settings: for Aqueous concentration of mercury, Extraction: adherence at 4-6° C.; for Aqueous concentration, Extractant: after 24 hours; for Aqueous concentration, Extractant / Aqueous concentration of mercury, Extractant: 20-25° C.; for Aqueous concentration of mercury, Extractant: after 7 days, initial 22829.8 mg/L, extractant = chemical decontaminant of the present disclosure
Protocol: In Task 1, the pipes were rinsed immediately after the equilibrated solution was transferred into the analytical sample vials. Thereafter, de-ionized water at room temperature was used for rinsing the pipes. Three consecutive rinses were conducted using de-ionized water at room temperature. In case of aged black iron pipe, the aqueous solution was centrifuged before transferring to the sample vials to avoid entrainment of colloidal corroded iron particles in the solution. During the extraction step, the pipes were about half filled with the extraction solution and wrapped tightly. The 4″ diameter pipes were filled with 150 mL of extraction solution. The copper, PVC, and HDPE pipes were filled with 55 mL of extraction solution, while the epoxy and the aged metal pipes were filled with 85 mL of extraction solution. […] After shaking for 1 hour, the pipes were flipped in order to get contact with the entire inner surface of the pipe. The extraction solutions were transferred to the appropriate sample vial.
as §1
In this table, m0 and mi are the initial and final amounts of chemical in water.
Water rinse was done to remove the weakly-bound chemicals, while the strongly-bound chemicals, if any, were extracted with stronger solvents.

Compound: CCCCOCCO [Butyl cellosolve]
- PEL [1]: 25 mg/L
- TLV [1]: 25 mg/L

Compound: COP(=O)(OC)OC=C(Cl)Cl [Dichlorvos]
- Hydrolysis ([2]; at pH 4): slow
- Hydrolysis ([2]; at pH 9): rapid
- Half-life ([2]; between pH 4 and pH 9): 20 to 80 h
- LD50 [3]: LD50 oral (rat) 56 to 80 mg/kg

Compound: COP(=O)(OC)O/C(C)=C/C(=O)N(C)C [Dicrotophos]
- time after which decomposed ([2]; at 75° C.): 31 days
- time after which decomposed ([2]; at 90° C.): 7 days
- storage stability ([2]; stored in glass or polythene containers up to 40° C.): stable
- LD50 [3]: Oral LD50 for rats is 16- 21 mg/kg.

Compound: OCl [Sodium Hypochlorite, Sodium hypochlorite]
- Aqueous concentration of mercury, Extraction ([4]; COP (copper) pipe, listed as Hypochlorite): 11.01 mg/L and 8.48 mg/L
- Aqueous concentration of mercury, Extraction ([4]; COP (copper) pipe, listed as hypochlorite): 8.5 mg/L and 11 mg/L
- Aqueous concentration of mercury, Extraction ([4]; DIE pipe): 133.91 mg/L and 136.16 mg/L
- Aqueous concentration of mercury, Extraction ([4]; DIW pipe, listed as Hypochlorite): 251.05 mg/L and 315.47 mg/L
- Aqueous concentration of mercury, Extraction ([4]; DIW pipe, listed as hypochlorite): 251 mg/L and 315 mg/L
- Aqueous concentration of mercury, Extraction ([4]; PVC pipe): 290.19 mg/L and 172.41 mg/L
- effectiveness in releasing / removing adhered mercury ([4]; mercury adhered on DIW and copper pipes): not effective
- removal / recovery of contaminants compared with the other decontaminants tested ([4]; mercury and organophosphates, solid surfaces): significantly less
- pH [5]: ~13

Compound: O=C(O)CF [fluoroacetate]
- Adhesion coefficients under 7 days and room temperature condition versus 24 hours or low temperature conditions [6]: generally higher

Compound: Mercuric chloride [Mercury]
- Aqueous concentration of mercury, Extraction ([7]; Copper pipe, Mercury #1, initial 7737.5 mg/L): 515.7 mg/L and 272.8 mg/L
- Aqueous concentration, Extractant ([7]; Copper pipe, Mercury #1, initial 8171.5 mg/L): 702.4 mg/L and 559.3 mg/L
- Aqueous concentration, Extractant ([7]; Copper pipe, Mercury #2, initial 23950.0 mg/L): 1820.0 mg/L and 2140.0 mg/L
- Aqueous concentration of mercury, Extraction ([7]; Copper pipe, Mercury #2, initial 28800.0 mg/L): 2930.0 mg/L and 2800.0 mg/L
- Aqueous concentration of mercury, Extractant ([7]; Copper pipe): 7368.1 mg/L and 6413.5 mg/L
- Aqueous concentration of mercury, Extractant ([7]; DIE pipe): 187.6 mg/L and 179.1 mg/L
- Aqueous concentration of mercury, Extractant ([7]; DIO pipe): 9532.2 mg/L and 7156.1 mg/L
- Aqueous concentration, Extractant ([7]; DIW pipe, Mercury #1, initial 8171.5 mg/L): 684.6 mg/L and 914.1 mg/L
- Aqueous concentration of mercury, Extraction ([7]; DIW pipe, Mercury #2, initial 28800.0 mg/L): 1520.0 mg/L and 2290.0 mg/L
- Aqueous concentration of mercury, Extractant ([7]; HDPE pipe): 0.3 mg/L and 0.5 mg/L
- Aqueous concentration of mercury, Extraction ([7]; PVC pipe, Mercury #1, initial 7737.5 mg/L): 1.6 mg/L and 2.6 mg/L
